Reference: ChEMBL document CHEMBL1201862, “PubChem BioAssay data set” (2004)
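These data come from cells grown in 96-well plates and exposed to compound for 48 hours at five concentrations. At the GI50, growth is halved.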 Active and inactive are the calls of the source. Rule as the data show it: active = GI50 up to about 1.1 µM and inactive = higher.

What was measured:
Experiment in all cases: DTP human tumour cell line panel, 48 h
[1] = system: MDA-MB-435
[2] = system: EKVX
[3] = system: DU-145
[4] = system: BT-549
[5] = system: LOX IMVI
[6] = system: NCI-H23
[7] = system: Malme-3M
[8] = system: MDA-N
[9] = system: COLO 205
[10] = system: A498
[11] = system: RXF 393
[12] = system: SF-295
[13] = system: SK-MEL-28
[14] = system: MCF7
[15] = system: KM12

Measured: GI50

Fc1cccc(C2ON=C(c3ccccc3)N2C23CC4CC(CC(C4)C2)C3)c1 (stereo not given)
inactive: [1] > 10 µM | [2] > 10 µM | [3] > 10 µM | [4] > 10 µM | [5] > 10 µM | [6] > 10 µM | [7] > 10 µM | [8] > 10 µM | [9] > 10 µM | [10] > 10 µM | [11] > 10 µM | [12] > 10 µM | [13] > 10 µM | [14] > 10 µM | [15] > 10 µM

O=C1O/C(=C\c2ccc(O)cc2)C(c2ccc(O)c(Cl)c2)=C1Br
inactive: [1] 15.7 µM | [2] 14.1 µM | [3] 12.9 µM | [4] 6.35 µM | [5] 42 µM | [6] 16.1 µM | [7] 15.3 µM | [8] 8.57 µM | [9] 19.3 µM | [10] 16.4 µM | [11] 18.6 µM | [12] 14.5 µM | [13] 13.4 µM | [14] 16.7 µM | [15] 12.4 µM

COc1cc(OC)nc(-n2c(N)c(C(=O)O)c3ccc([N+](=O)[O-])cc3c2=O)n1
inactive: [1] > 100 µM | [2] > 100 µM | [3] > 100 µM | [4] > 100 µM | [5] > 100 µM | [6] > 100 µM | [7] > 100 µM | [8] > 100 µM | [9] > 100 µM | [10] > 100 µM | [11] > 100 µM | [12] > 100 µM | [13] 97.7 µM | [14] > 100 µM | [15] > 100 µM

C/C(=N\NC(=O)c1ccncc1)c1sc(-n2nc(-c3ccccc3)cc2-c2ccccc2)nc1C
inactive: [1] > 31.6 µM | [2] 47.8 µM | [3] > 31.6 µM | [4] > 31.6 µM | [5] > 80.9 µM | [6] > 31.6 µM | [7] > 56.2 µM | [8] > 100 µM | [9] > 100 µM | [10] > 100 µM | [11] > 31.6 µM | [12] > 31.6 µM | [13] > 31.6 µM | [14] > 31.6 µM | [15] 99.5 µM

CC(C)(C)OC(=O)NC(CSSCC(NC(=O)OC(C)(C)C)C(=O)O)C(=O)O (stereo not given)
inactive: [1] > 100 µM | [2] > 100 µM | [3] > 100 µM | [4] > 100 µM | [5] > 100 µM | [6] > 100 µM | [7] > 100 µM | [8] > 100 µM | [9] > 100 µM | [10] > 100 µM | [11] > 100 µM | [12] > 100 µM | [13] > 100 µM | [14] > 100 µM | [15] > 100 µM

CC(C)C1(O)C(=O)N(c2c(F)c(F)c(F)c(F)c2F)C(=S)N1CCSc1ccccc1 (stereo not given)
inactive: [1] 18.2 µM | [2] 18.8 µM | [3] 17.1 µM | [4] 16.1 µM | [5] 16.5 µM | [6] 18.1 µM | [7] 17.3 µM | [8] 17.2 µM | [9] 17.9 µM | [10] 16.3 µM | [11] 17.3 µM | [12] 17.3 µM | [13] 16.5 µM | [14] 17.2 µM | [15] 17.1 µM

CC(C)C(=O)Nc1cc(C(F)(F)F)ccc1[N+](=O)[O-]
inactive: [1] > 100 µM | [2] > 100 µM | [3] > 100 µM | [4] > 100 µM | [5] > 100 µM | [6] > 100 µM | [7] 68.5 µM | [8] > 100 µM | [9] > 100 µM | [10] > 100 µM | [11] > 100 µM | [12] > 100 µM | [13] > 100 µM | [14] > 100 µM | [15] > 100 µM

CCCCCCCCCCCCCCCCP(=O)([O-])OCC[N+](C)(C)C
inactive: [1] 17.3 µM | [2] 20.1 µM | [3] 14.7 µM | [4] 9.53 µM | [5] 14.9 µM | [6] 20.2 µM | [7] 21.3 µM | [8] 15.4 µM | [9] 6.58 µM | [10] 14.5 µM | [11] 3.93 µM | [12] 12.9 µM | [13] 18.5 µM | [14] 17.5 µM | [15] 2.61 µM

Fc1ccc(C(OCCN2CCN(CCCc3ccccc3)CC2)c2ccc(F)cc2)cc1
inactive: [1] 3.63 µM | [2] 4.17 µM | [3] 5.97 µM | [4] 7.05 µM | [5] 4.65 µM | [6] 4.04 µM | [7] 5.31 µM | [8] 4.06 µM | [9] 2.75 µM | [10] 6.97 µM | [11] 3.67 µM | [12] 4.39 µM | [13] 9.73 µM | [14] 4.59 µM | [15] 4.19 µM

O=C1c2cccc3cccc(c23)C(=O)N1O
inactive: [1] > 100 µM | [2] > 100 µM | [3] 53.6 µM | [4] > 100 µM | [5] 53.2 µM | [6] 74.8 µM | [7] > 100 µM | [8] 91.6 µM | [9] > 100 µM | [10] > 100 µM | [11] 24 µM | [12] 34.2 µM | [13] > 100 µM | [14] 37.5 µM | [15] 45.4 µM

C[C@]12CCC(=O)C=C1CC[C@@H]1[C@@H]2[C@@H](O)C[C@@]2(C)[C@H]1CC[C@]2(O)C(=O)COC(=O)C1CCCC1
inactive: [1] > 100 µM | [2] 32.7 µM | [3] > 100 µM | [4] > 100 µM | [5] > 100 µM | [6] > 100 µM | [7] > 100 µM | [8] > 100 µM | [9] > 100 µM | [10] > 100 µM | [11] > 100 µM | [12] > 100 µM | [13] > 100 µM | [14] > 100 µM | [15] > 100 µM

CN(C)CN1C(=O)/C(=N\n2c(S)nnc2-c2ccncc2)c2ccccc21
inactive: [1] 15.8 µM | [2] > 100 µM | [3] 26.5 µM | [4] 94.4 µM | [5] 22.9 µM | [6] 37.8 µM | [7] > 100 µM | [8] 16.7 µM | [9] 38.3 µM | [10] > 100 µM | [11] 17 µM | [12] > 100 µM | [13] 57.1 µM | [14] 31.3 µM | [15] 43.7 µM

N#CC(=S)Nc1ccc(F)cc1
inactive: [1] 38 µM | [2] 72.3 µM | [3] 86.7 µM | [4] 32.6 µM | [5] 30.8 µM | [6] 53.7 µM | [7] 50.2 µM | [8] 52.1 µM | [9] 22.4 µM | [10] 32.7 µM | [11] 42.1 µM | [12] 51.6 µM | [13] 45.5 µM | [14] 64.7 µM | [15] 70.3 µM
